# Data reported in patent US4169096A, “Antibiotic compounds” (priority 1977, dated 1979).
# Where a name gives a salt, the structure may show the parent alone. Read-outs that look alike come from different tables or passages of the source.
# Key:
# Proteus mirabilis A9554 = test: MIC, serial two-fold agar dilution, aerobic bacteria; assay type: cell-based; conditions: Nutrient agar (Eiken)
# [1] = pKa' by titration in aqueous ethanol; assay type: physicochemical; conditions: 46% aqueous ethanol
# [2] = tested on: aerobic and anaerobic bacteria; test: Antibacterial activity and spectrum (in words); assay type: cell-based
# [3] = tested on: Hemophilus influenzae A9832; test: MIC, serial two-fold agar dilution, aerobic bacteria; assay type: cell-based; conditions: Haemophilus influenzae, GC medium (Eiken)
# aerobic organisms = test: Antibacterial activity against aerobic bacteria (in words); assay type: cell-based; conditions: Bacillus species, streptococci, Neisseria meningtidis, N. gonorrhoeae, Hemophilus influenzae
# [4] = tested on: two anaerobic and one aerobic organisms; test: Bactericidal potential (in words); assay type: cell-based
# Solubility = assay type: physicochemical
# Proteus morganii A9553 = test: MIC, serial two-fold agar dilution, aerobic bacteria; assay type: cell-based; conditions: Morganella morganii, Nutrient agar (Eiken)
# [5] = tested on: Neisseria gonorrhoeae A20154; test: as above; assay type: cell-based; conditions: GC medium (Eiken)
# [6] = tested on: Staphylococcus aereus Smith; test: as above; assay type: cell-based
# [7] = tested on: two anaerobic organisms (B. fragilis and C. perfringens); assay type: cell-based; conditions: broth dilution method
# [8] = tested on: Serratia marcescens A20019; test: MIC, serial two-fold agar dilution, aerobic bacteria; assay type: cell-based; conditions: Nutrient agar (Eiken), read-out: MIC
# [9] = tested on: Peptostreptococcus anaerobius B43; assay type: cell-based; conditions: GAM agar medium (Nissui)
# C. perfringens A9635 [10] = test: microbe, parasite or virus in culture; assay type: cell-based; conditions: Clostridium perfringens, A9635, 18 h
# [11] = tested on: Bacillus subtilis PCI-219; test: MIC, serial two-fold agar dilution, aerobic bacteria; assay type: cell-based
# [12] = tested on: C. perfringens or S. pyrogenes; assay type: in vivo, mice; conditions: subcutaneous and oral
# [13] = tested on: Streptococcus viridans A21354; test: MIC, serial two-fold agar dilution, aerobic bacteria; assay type: cell-based; conditions: GC medium (Eiken)
# B. fragilis A20928-1 [14] = test: Inoculum size effect on MIC, GAM agar; assay type: cell-based; conditions: Bacteroides fragilis, A209281; inoculum size 1.2 × 10^6 cell/ml
# B. fragilis A20928-1 [15] = test: Inoculum size effect on MIC, GAM broth; assay type: cell-based; conditions: Bacteroides fragilis
# Micrococcus flavus = test: MIC, serial two-fold agar dilution, aerobic bacteria; assay type: cell-based; conditions: Nutrient agar (Eiken), read-out: MIC
# [16] = tested on: Klebsiella pneumoniae A9678; test: as above; assay type: cell-based; conditions: Nutrient agar (Eiken), read-out: MIC
# [17] = tested on: Diplococcus pneumoniae A9585; test: as above; assay type: cell-based; conditions: Streptococcus pneumoniae, GC medium (Eiken)
# [18] = tested on: Escherichia coli Juhl A15119; test: as above; assay type: cell-based; conditions: JUHLA15119, Nutrient agar (Eiken), read-out: MIC
# [19] = tested on: Hemophilus influenzae A20188; test: as above; assay type: cell-based; conditions: Haemophilus influenzae, GC medium (Eiken)
# [20] = tested on: Pseudomonas aeruginosa A9843; test: as above; assay type: cell-based; conditions: test medium not given
# [21] = tested on: Escherichia coli K-12 A9632; test: as above; conditions: K12A9632
# [22] = tested on: Staphylococcus aureus #52-34; test: as above; assay type: cell-based
# [23] = tested on: Staphylococcus aureus 209P; test: as above; assay type: cell-based; conditions: Nutrient agar (Eiken)
# [24] = tested on: Streptococcus pyogenes A20201; test: as above; assay type: cell-based; conditions: GC medium (Eiken)
# [25] = tested on: Neisseria meningitidis A21496; test: as above; assay type: cell-based; conditions: GC medium (Eiken)
# Stability in solution = assay type: physicochemical
# [26] = tested on: Bacillus cereus ATCC 10702 A; test: MIC, serial two-fold agar dilution, aerobic bacteria; assay type: cell-based; conditions: ATCC10702, Nutrient agar (Eiken), read-out: MIC
# C. perfringens A9635 [27] = test: animal or person; assay type: in vivo, mice; conditions: Clostridium perfringens, A9635, in Mus musculus, 120 h, read-out: PD50
# C. perfringens A9635 [28] = test: microbe, parasite or virus in culture; assay type: cell-based; conditions: Clostridium perfringens, A9635, read-out: MIC in GAM broth, inoculum size […] 10^6 cell/ml
# [29] = tested on: Neisseria meningitidis A20049; test: MIC, serial two-fold agar dilution, aerobic bacteria; assay type: cell-based; conditions: GC medium (Eiken), read-out: MIC
# S. pyogenes A20201 [30] = test: Bactericidal activity (MIC & MBC); assay type: cell-based; conditions: Streptococcus pyogenes, A20201, 18 h
# [31] = tested on: Neisseria gonorrhoeae A15112; test: MIC, serial two-fold agar dilution, aerobic bacteria; assay type: cell-based; conditions: GC medium (Eiken)
# [32] = tested on: Streptococcus pyogenes A9604; test: as above; assay type: cell-based; conditions: GC medium (Eiken)
# B. fragilis A20928-1 [33] = test: Bactericidal activity (MIC & MBC); assay type: cell-based; conditions: Bacteroides fragilis, A209281, inoculum size 2.8 × 10^6 cell/ml; for MIC: broth; for MBC: growth of less than 100 colonies per plate, 18 hours at 37° C.
# Sarcina lutea PCI-1001 = test: MIC, serial two-fold agar dilution, aerobic bacteria; assay type: cell-based; conditions: Micrococcus luteus, PCI1001
# S. pyogenes A20201 [34] = test: Systemic infection with S. pyogenes in mice; assay type: in vivo; conditions: Streptococcus pyogenes, A20201, 120 h, just before challenge, determined after 5 days, read-out: PD50
# B. fragilis A20926 = test: Localized infection with B. fragilis in mice; assay type: in vivo; conditions: for mean score: control 4.2; for sum of score: control 21; for infectivity level: control 100%
# bacterial RNA polymerase = conditions: Antimicrobial Agents and Chemotherapy 1976, page 618; cited from earlier work
# C. perfringens A9635 [35] = test: microbe, parasite or virus in culture; assay type: cell-based, Clostridium perfringens
# [36] = A209281, read-out: MIC in GAM broth, inoculum size […] 10^6 cell/ml
# [37] = Nutrient agar (Eiken), read-out: MIC
smiles,measurement,setting,value
COC(=O)C1C(C)OC2(C)CC(=O)C3OC12OC(C(C)/C=C(C)/C=C/C(=O)C1=C(O)CNC1=O)C3C (centres unmarked) [Bu-2313B],MIC,Proteus mirabilis A9554,> 100 µg/mL
same,pKa,[1],4.9
same,antibacterial activity,[2],exhibit antibacterial activity against a variety of anaerobic bacteria and some aerobic bacteria
same,comparative activity and antibacterial spectrum,[2]; in vitro,very similar to those of tirandamycin
same,MIC,[3],0.4 µg/mL
same,susceptibility of aerobic strains,aerobic organisms,susceptible
same,antibacterial action,[4],bacteriostatic rather than bactericidal
same,LD50,"Acute toxicity; ip, listed as Bu-2313B (free acid)",115 mg/kg
same,comparative acute toxicity,"Acute toxicity; sc, ip and oral LD50",significantly lower toxicity than Bu-2313A
same,solubility,Solubility; hexane and alkaline water,slightly soluble
same,solubility,"Solubility; most organic solvents such as lower alcohols, ethyl acetate, chloroform and benzene",readily soluble
same,solubility,Solubility; water,practically insoluble
same,MIC,Proteus morganii A9553,> 100 µg/mL
same,MIC,[5],0.8 µg/mL
same,MIC,[6],12.5 µg/mL
same,LD50,"in vivo; sc, LD50, sc",225 mg/kg
same,influence of inoculum size on MIC,[7],greatly affected by inoculum size
same,MIC,[8],> 100 µg/mL
same,MIC,[9],0.4 µg/mL
same,MBC,C. perfringens A9635 [10],12.5 µg/mL
same,MIC,"[11]; PCI219, Nutrient agar (Eiken), read-out: MIC",1.6 µg/mL
same,protection against systemic infections,[12],fairly good protection
same,MIC,[13],0.4 µg/mL
same,MIC,B. fragilis A20928-1 [14],0.05 µg/mL
same,MIC,"B. fragilis A20928-1 [15]; A209281, inoculum size […] 10^7 cell/ml, read-out: MIC in GAM broth",0.4 µg/mL
same,MIC,B. fragilis A20928-1 [15]; [36],0.013 µg/mL
same,MIC,Micrococcus flavus,25 µg/mL
same,MIC,[16],> 100 µg/mL
same,MIC,[17],0.4 µg/mL
same,MIC,[18],> 100 µg/mL
same,MIC,[19],0.8 µg/mL
same,MIC,[20],> 100 µg/mL
same,MIC,[21],> 100 µg/mL
same,MIC,[22],12.5 µg/mL
same,MIC,[23],25 µg/mL
same,MIC,[24],0.4 µg/mL
same,MIC,[25],1.6 µg/mL
same,stability,Stability in solution; acidic solution,stable
same,stability,"Stability in solution; alkaline solution, N/10 NaOH, room temperature, overnight",inactivated
same,MIC,[26],0.8 µg/mL
same,ED50,C. perfringens A9635 [27]; po,30 mg/kg
same,ED50,C. perfringens A9635 [27]; sc,6.25 mg/kg
same,MIC,C. perfringens A9635 [28],25 µg/mL
same,MIC,[29],0.8 µg/mL
same,MBC,S. pyogenes A20201 [30],12.5 µg/mL
same,MIC,[31],0.8 µg/mL
same,MIC,[32],0.4 µg/mL
same,MIC,B. fragilis A20928-1 [33],0.006 µg/mL
same,MBC,B. fragilis A20928-1 [33],> 0.8 µg/mL
same,MIC,Sarcina lutea PCI-1001,12.5 µg/mL
same,ED50,"S. pyogenes A20201 [34]; po, NA: no activity",25 mg/kg
same,ED50,S. pyogenes A20201 [34]; sc,9 mg/kg
COC(=O)C1C(C)OC2(C)CC(=O)C3OC12OC(C(C)/C=C(C)/C=C/C(=O)C1=C(O)CNC1=O)C3C (centres unmarked) [Bu-2313B (Na salt)],LD50,Acute toxicity; ip,55 mg/kg
same,LD50,Acute toxicity; sc,200 mg/kg
same,LD50,"in vivo; po, LD50, po",280 mg/kg
same,mean score,"B. fragilis A20926; oral, 6.3 × 5 mg/kg",3.4
same,sum of score,"B. fragilis A20926; oral, 6.3 × 5 mg/kg",17
same,infectivity level,"B. fragilis A20926; oral, 6.3 × 5 mg/kg",81.0%
same,mean score,"B. fragilis A20926; oral, 25 × 5 mg/kg",3.0
same,sum of score,"B. fragilis A20926; oral, 25 × 5 mg/kg",15
same,infectivity level,"B. fragilis A20926; oral, 25 × 5 mg/kg",71.4%
same,mean score,"B. fragilis A20926; oral, 100 × 5 mg/kg",2.4
same,sum of score,"B. fragilis A20926; oral, 100 × 5 mg/kg",12
same,infectivity level,"B. fragilis A20926; oral, 100 × 5 mg/kg",57.1%
same,mean score,"B. fragilis A20926; oral, […] 5 mg/kg",4.0
same,sum of score,"B. fragilis A20926; oral, […] 5 mg/kg",20
same,infectivity level,"B. fragilis A20926; oral, […] 5 mg/kg",95.2%
same,mean score,"B. fragilis A20926; subcutaneous, 0.8 × 5 mg/kg",4.0
same,sum of score,"B. fragilis A20926; subcutaneous, 0.8 × 5 mg/kg",20
same,infectivity level,"B. fragilis A20926; subcutaneous, 0.8 × 5 mg/kg",95.2%
same,mean score,"B. fragilis A20926; subcutaneous, 3.1 × 5 mg/kg",3.4
same,sum of score,"B. fragilis A20926; subcutaneous, 3.1 × 5 mg/kg",17
same,infectivity level,"B. fragilis A20926; subcutaneous, 3.1 × 5 mg/kg",81.0%
same,mean score,"B. fragilis A20926; subcutaneous, 50 × 5 mg/kg",2.2
same,sum of score,"B. fragilis A20926; subcutaneous, 50 × 5 mg/kg",11
same,infectivity level,"B. fragilis A20926; subcutaneous, 50 × 5 mg/kg",52.4%
same,mean score,"B. fragilis A20926; subcutaneous, […] 5 mg/kg",2.8
same,sum of score,"B. fragilis A20926; subcutaneous, […] 5 mg/kg",14
same,infectivity level,"B. fragilis A20926; subcutaneous, […] 5 mg/kg",66.7%
"CC(/C=C/C(=O)C1=C(O)CNC1=O)=C\C(C)C1OC2(C)OC(C(=O)C3OC32C)C1C (centres unmarked) [Tirandamycin, reference compound]",MIC,Proteus mirabilis A9554,> 100 µg/mL
same,MIC,Proteus morganii A9553,> 100 µg/mL
same,MIC,[6]; [37],> 100 µg/mL
same,MIC,[8],> 100 µg/mL
same,MBC,C. perfringens A9635 [10],3.1 µg/mL
same,MIC,[11]; PCI219,3.1 µg/mL
same,MIC,B. fragilis A20928-1 [15]; [36],0.006 µg/mL
same,inhibition of bacterial RNA polymerase,bacterial RNA polymerase,inhibitor of bacterial RNA polymerase in a manner similar to streptolydigin
same,MIC,Micrococcus flavus,25 µg/mL
same,MIC,[16],> 100 µg/mL
same,MIC,[18],> 100 µg/mL
same,MIC,[19],0.8 µg/mL
same,MIC,[20],> 100 µg/mL
same,MIC,[21],> 100 µg/mL
same,MIC,[22]; [37],50 µg/mL
same,MIC,[23],100 µg/mL
same,MIC,[24],0.8 µg/mL
same,MIC,[25],0.8 µg/mL
same,ED50,C. perfringens A9635 [27]; po,60 mg/kg
same,ED50,C. perfringens A9635 [27]; sc,17 mg/kg
same,MIC,C. perfringens A9635 [28],12.5 µg/mL
same,MIC,[29],0.8 µg/mL
same,MBC,S. pyogenes A20201 [30],> 12.5 µg/mL
same,MIC,[32],0.8 µg/mL
same,MIC,"C. perfringens A9635 [35]; Clostridium perfringens, A9635, read-out: MIC in GAM agar",0.8 µg/mL
same,MIC in GAM agar,C. perfringens A9635 [35]; inoculum size 7 × 10^6 cell/ml,0.8 µg/mL
same,MIC,B. fragilis A20928-1 [33],0.025 µg/mL
same,MBC,B. fragilis A20928-1 [33],> 0.8 µg/mL
same,MIC,Sarcina lutea PCI-1001; [37],50 µg/mL
same,ED50,"S. pyogenes A20201 [34]; po, NA: no activity",50 mg/kg
same,ED50,S. pyogenes A20201 [34]; sc,9.7 mg/kg
